Here are results for 11 compounds from patent US6395773B1, “Anti-drug resistant strain agents and antichlamydia agents” (Japan Science and Technology Corporation, priority 1999, dated 2002).

Converted amounts (≈) assume the structure as drawn. Bounds are passed on as bounds.

Assay [1] concerns methicillin-resistant Staphylococcus aureus (MRSA). As to the kind of experiment: Effect on decreasing antibiotic resistance by concomitant use of FNQ3, MRSA. The settings on record: for MIC: Staphylococcus aureus, 24 h, read-out: MIC of antibiotic, −FNQ3; for MIC of antibiotic, +FNQ3: concomitant FNQ3, final concentration 0.5 μg/ml; for decrease of the resistance of MRSA against the antibiotic (fraction of MIC): with the Compound (FNQ3) 0.5 μg/ml.

The subject of assay [2] is methicillin-sensitive Staphylococcus aureus (MSSA). As to the kind of experiment: Effect on decreasing antibiotic resistance by concomitant use of FNQ3, MSSA. The settings on record: for MIC: Staphylococcus aureus, 24 h, read-out: MIC of antibiotic, −FNQ3; for MIC of antibiotic, +FNQ3: concomitant FNQ3, final concentration 0.5 μg/ml.
The subject of a further assay is C. pneumoniae. As to the kind of experiment: microbe, parasite or virus in culture. It is filed as cell-based. The settings on record: Chlamydia pneumoniae.
The subject of the next assay is C. trachomatis. As to the kind of experiment: microbe, parasite or virus in culture. It is filed as cell-based. The settings on record: Chlamydia trachomatis.
Another assay relates to C. psittaci. As to the kind of experiment: microbe, parasite or virus in culture. The following applies: Chlamydia psittaci, strain Cal 10. It is filed as cell-based.
Assay [3] has as its system all tested strains of Chlamydia. It is filed as cell-based. The following applies: tendency; McCoy and WI38 versus HeLa229.
The next assay has as its system Staphylococcus aureus. The experiment in a line: FNQ3 alone, growth of Staphylococcus aureus. The following applies: 0.5 μg/ml.
Assay [4] concerns fluconazole-resistant Candida albicans (FRCA). As to the kind of experiment: Proliferation inhibitory test for Candida albicans (agar medium MIC), FRCA. The settings on record: for MIC: Candida albicans.
The subject of assay [5] is fluconazole-sensitive Candida albicans (FSCA). The experiment in a line: Proliferation inhibitory test for Candida albicans (agar medium MIC), FSCA.
The subject of assay [6] is methicillin-resistant Staphylococcus aureus (MRSA). The experiment in a line: Proliferation inhibitory test for Staphylococcus aureus (agar medium MIC), MRSA. The following applies: for MIC: Staphylococcus aureus, MRSA.
The test system of assay [7] is methicillin-sensitive Staphylococcus aureus (MSSA). As to the kind of experiment: Proliferation inhibitory test for Staphylococcus aureus (agar medium MIC), MSSA. The settings on record: for MIC: Staphylococcus aureus, MSSA.

Turning to `CN(C)CCn1nnnc1SCC1=C(C(=O)O)N2C(=O)[C@@H](NC(=O)Cc3csc(N)n3)[C@H]2SC1` [Cefotiam], in [1], the MIC amounted to 32 µg/mL and the “MIC of antibiotic, +FNQ3” value fell in the range of 16 to 32 µg/mL. For the same compound, in assay [2], the MIC is 0.25 to 0.5 µg/mL and the “MIC of antibiotic, +FNQ3” value was found to be 0.25 µg/mL.
As for `N[C@@H](C(=O)N[C@@H]1C(=O)N2C(C(=O)O)=C(Cl)CS[C@H]12)c1ccccc1` [cefaclor], in assay [1], the MIC came out at 64 µg/mL; the “MIC of antibiotic, +FNQ3” value turned out to be 16 µg/mL; the “decrease of the resistance of MRSA against the antibiotic (fraction of MIC)” value (from here on “decrease of the resistance … (fraction of MIC)”) is “½ to ¼”. In [2], the MIC was 1 µg/mL and the “MIC of antibiotic, +FNQ3” value turned out to be 1 µg/mL.
For the compound `CN[C@H](CC(C)C)C(=O)N[C@H]1C(=O)N[C@@H](CC(N)=O)C(=O)N[C@H]2C(=O)N[C@H]3C(=O)N[C@H](C(=O)N[C@H](C(=O)O)c4cc(O)cc(O)c4-c4cc3ccc4O)[C@H](O)c3ccc(c(Cl)c3)Oc3cc2cc(c3O[C@@H]2O[C@H](CO)[C@@H](O)[C@H](O)[C@H]2O[C@H]2C[C@](C)(N)[C@H](O)[C@H](C)O2)Oc2ccc(cc2Cl)[C@H]1O` [Vancomycin], in assay [1], the MIC was 2.5 µg/mL; the “MIC of antibiotic, +FNQ3” value is 0.6 to 1.25 µg/mL; the “decrease of the resistance … (fraction of MIC)” value is reported as “½ to ¼”. In assay [2], the MIC turned out to be 0.6 µg/mL and the “MIC of antibiotic, +FNQ3” value is 0.6 µg/mL.
Turning to `CC[C@H]1OC(=O)[C@H](C)[C@@H](O[C@H]2C[C@@](C)(OC)[C@@H](O)[C@H](C)O2)[C@H](C)[C@@H](O[C@@H]2O[C@H](C)C[C@H](N(C)C)[C@H]2O)[C@](C)(OC)C[C@@H](C)C(=O)[C@H](C)[C@@H](O)[C@]1(C)O` [Clarithromycin], in assay [1], the MIC is 16 µg/mL and the “MIC of antibiotic, +FNQ3” value amounted to 16 µg/mL. Further, in [2], the MIC came to 0.5 µg/mL and the “MIC of antibiotic, +FNQ3” value lay within 0.5 to 1 µg/mL.
On to `Cc1cc2c(o1)C(=O)c1ccccc1C2=O` [FNQ3, 2-methylnaphtho[2,3-b]furan-4,9-dione], for which the MIC against C. pneumoniae (strain KKpn-1, HeLa229 cells) came to 0.25 µg/mL (≈ 1.18 µM); in the assay on C. pneumoniae (strain KKpn-1, McCoy cells) it was 0.25 µg/mL (≈ 1.18 µM); against C. pneumoniae (strain TW-183, HeLa229 cells) it was 0.6 µg/mL (≈ 2.83 µM); in the assay on C. trachomatis (strain D, HeLa229 cells), 1 µg/mL (≈ 4.71 µM); with C. trachomatis (strain F, HeLa229 cells) it was 1 µg/mL (≈ 4.71 µM); against C. trachomatis (strain L2, HeLa229 cells), 1 µg/mL (≈ 4.71 µM). Further, the MIC amounted to 0.6 µg/mL (≈ 2.83 µM) in the assay with C. trachomatis (strain L2, McCoy cells); 0.5 µg/mL (≈ 2.36 µM) against C. trachomatis (strain L2, WI 38 cells); 1 µg/mL (≈ 4.71 µM) with C. psittaci (HeLa229 cells); 0.5 µg/mL (≈ 2.36 µM) with C. psittaci (McCoy cells); 0.25 µg/mL (≈ 1.18 µM) in the assay on C. psittaci (WI 38 cells). In addition, in assay [3], the “MIC with McCoy and WI38 cells relative to HeLa229 cells” value is given as “approximately ½”. Further, the “influence on the growth of Staphylococcus aureus” value with Staphylococcus aureus is reported as “no influence on the growth”.
For the compound `C[C@H]1COc2c(N3CCN(C)CC3)c(F)cc3c(=O)c(C(=O)O)cn1c23` [Levofloxacin], in assay [1], the MIC turned out to be 8 µg/mL and the “MIC of antibiotic, +FNQ3” value turned out to be 4 µg/mL. Further, in [2], the MIC was found to be 0.25 µg/mL and the “MIC of antibiotic, +FNQ3” value turned out to be 0.25 µg/mL.
On to `CC[C@H]1OC(=O)[C@H](C)[C@@H](O[C@H]2C[C@@](C)(OC)[C@@H](O)[C@H](C)O2)[C@H](C)[C@@H](O[C@@H]2O[C@H](C)C[C@H](N(C)C)[C@H]2O)[C@](C)(O)C[C@@H](C)/C(=N\OCOCCOC)[C@H](C)[C@@H](O)[C@]1(C)O` [Roxithromycin], for which, in assay [1], the MIC was 16 µg/mL and the “MIC of antibiotic, +FNQ3” value was determined as 16 µg/mL. In addition, in [2], the MIC was determined as 1 µg/mL and the “MIC of antibiotic, +FNQ3” value stood at 1 µg/mL.
Take `Cc1cc2c(o1)C(=O)c1c(O)cccc1C2=O` [FNQ13, 8-hydroxy-2-methylnaphtho[2,3-b]furan-4,9-dione]: the MIC in [4] (FRCA strain CA383) turned out to be 2 µg/mL (≈ 8.76 µM); in assay [4] (FRCA strain CA8941), 8 µg/mL (≈ 35.1 µM); in assay [4] (FRCA strain DUNC136), 4 µg/mL (≈ 17.5 µM); in assay [4] (FRCA strain MCV7), 2 µg/mL (≈ 8.76 µM); in assay [4] (FRCA strain S78941), 4 µg/mL (≈ 17.5 µM); in assay [4] (FRCA strain T77042) it was 2 µg/mL (≈ 8.76 µM). Further, the MIC turned out to be 4 µg/mL (≈ 17.5 µM) in assay [5] (Candida albicans); 2 µg/mL (≈ 8.76 µM) in [5] (Candida albicans, TIMM0239); 2 µg/mL (≈ 8.76 µM) in assay [5] (Candida albicans, TIMM1756); 2 µg/mL (≈ 8.76 µM) in assay [5] (Candida albicans, TIMM1850); 4 µg/mL (≈ 17.5 µM) in assay [5] (FSCA strain TA); 6.25 µg/mL (≈ 27.4 µM) in [6] (MRSA strain 1 (Patient)). For the same compound, the MIC in assay [6] (MRSA strain 2 (Patient)) came out at 3.13 µg/mL (≈ 13.7 µM); in [6] (MRSA strain 3 (Patient)), 3.13 µg/mL (≈ 13.7 µM); in [6] (MRSA strain 4 (Patient)) it was 12.5 µg/mL (≈ 54.8 µM); in assay [6] (MRSA strain 5 (Patient)) it was 12.5 µg/mL (≈ 54.8 µM); in [6] (MRSA strain 6 (Patient)), 3.13 µg/mL (≈ 13.7 µM); in [6] (MRSA strain 7 (Patient)) it was 6.25 µg/mL (≈ 27.4 µM). For the same compound, the MIC in assay [6] (MRSA strain 8 (Patient)) stood at 3.13 µg/mL (≈ 13.7 µM); in [6] (MRSA strain 9 (Patient)) it was 6.25 µg/mL (≈ 27.4 µM); in assay [6] (MRSA strain 10 (Patient)), 3.13 µg/mL (≈ 13.7 µM); in assay [6] (MRSA strain 11 (Patient)), 6.25 µg/mL (≈ 27.4 µM); in [6] (MRSA strain 12 (N133)), 1.56 µg/mL (≈ 6.84 µM); in assay [6] (MRSA strain 13 (OF4)), 1.56 µg/mL (≈ 6.84 µM). Also, the MIC in assay [6] (MRSA strain 14 (N295)) stood at 6.25 µg/mL (≈ 27.4 µM); in [6] (read-out: MIC, Mean ± standard deviation, mean over 14 MRSA strains) it was 5.36 µg/mL (≈ 23.5 µM); in assay [7] (MSSA strain 1 (Patient)) it was 25 µg/mL (≈ 110 µM); in [7] (MSSA strain 2 (Patient)), 6.25 µg/mL (≈ 27.4 µM); in [7] (MSSA strain 3 (Patient)), 12.5 µg/mL (≈ 54.8 µM); in assay [7] (MSSA strain 4 (Patient)), 12.5 µg/mL (≈ 54.8 µM). Also, the MIC in assay [7] (MSSA strain 5 (Patient)) stood at 12.5 µg/mL (≈ 54.8 µM); in assay [7] (MSSA strain 6 (Patient)) it was 6.25 µg/mL (≈ 27.4 µM); in [7] (MSSA strain 7 (Patient)) it was 6.25 µg/mL (≈ 27.4 µM); in assay [7] (MSSA strain 8 (Patient)), 12.5 µg/mL (≈ 54.8 µM); in assay [7] (MSSA strain 9 (Patient)), 12.5 µg/mL (≈ 54.8 µM); in [7] (MSSA strain 10 (Patient)) it was 12.5 µg/mL (≈ 54.8 µM). Moreover, the MIC in assay [7] (MSSA strain 11 (Patient)) is 12.5 µg/mL (≈ 54.8 µM); in assay [7] (MSSA strain 12 (1840)) it was 12.5 µg/mL (≈ 54.8 µM); in [7] (read-out: MIC, Mean ± standard deviation, mean over 12 MSSA strains, p < 0.01), 12 µg/mL (≈ 52.5 µM). The “antibacterial activity against FRCA compared with FSCA” value in [4] (FRCA (resistant strain) versus FSCA (sensitive strain)) was “same degree of antibacterial activity”. The “MIC, Mean ± standard deviation” value came to 5.36 ± 3.5 µg/mL (≈ 23.5 µM) in [6] (mean over 14 MRSA strains) and 11.98 ± 4.9 µg/mL (≈ 52.5 µM) in assay [7] (mean over 12 MSSA strains, p < 0.01).
Take `CC1(C)S[C@@H]2[C@H](NC(=O)[C@H](N)c3ccccc3)C(=O)N2[C@H]1C(=O)O` [Ampicillin]: in [1], the MIC turned out to be 32 µg/mL; the “MIC of antibiotic, +FNQ3” value was determined as 4 µg/mL; the “decrease of the resistance … (fraction of MIC)” value is on record as “½ to ¼”. In assay [2], the MIC is 32 µg/mL and the “MIC of antibiotic, +FNQ3” value was 16 to 32 µg/mL.
Regarding `CN(C)c1ccc(O)c2c1C[C@H]1C[C@H]3[C@H](N(C)C)C(O)=C(C(N)=O)C(=O)[C@@]3(O)C(O)=C1C2=O` [Minacycline], in assay [1], the MIC stood at 8 µg/mL and the “MIC of antibiotic, +FNQ3” value was in the range of 2 to 4 µg/mL. Besides, in assay [2], the MIC is 0.25 µg/mL and the “MIC of antibiotic, +FNQ3” value is 0.25 µg/mL.
With `OC(Cn1cncn1)(Cn1cncn1)c1ccc(F)cc1F` [FLCZ, fluconazole, reference compound], the MIC in [4] (FRCA strain CA383) was more than 64 µg/mL; in [4] (FRCA strain CA8941), more than 64 µg/mL; in assay [4] (FRCA strain DUNC136), more than 64 µg/mL; in [4] (FRCA strain MCV7), 32 µg/mL (≈ 104 µM); in assay [4] (FRCA strain S78941), more than 64 µg/mL; in [4] (FRCA strain T77042), more than 64 µg/mL. The MIC in assay [5] (Candida albicans) is 0.03 µg/mL (≈ 0.098 µM); in assay [5] (Candida albicans, TIMM0239), 0.13 µg/mL (≈ 0.424 µM); in [5] (Candida albicans, TIMM1756), 0.06 µg/mL (≈ 0.196 µM); in assay [5] (Candida albicans, TIMM1850) it was 0.06 µg/mL (≈ 0.196 µM); in assay [5] (FSCA strain TA), 0.03 µg/mL (≈ 0.098 µM).
